This assay has as its system HCT116 MTAP-deleted cells. Nature of the assay: Cell viability assay (CellTiter-Glo, 7 days), HCT116 MTAP-deleted. To be noted: Homo sapiens, HCT-116, 168 h. (ATP-based viability assays read luminescence as a measure of living cells.)
Broadly, the CC50 is the concentration giving 50% cytotoxicity. Low readings indicate harm at low concentration, high ones better tolerance by the cells. Molecule `CN(C(=O)C1CC1)N(Cc1ccc(C(F)F)cn1)C(=O)c1ccc2nc(N)c3cnn(C)c3c2c1` [Example 370, 4-amino-N′-(cyclopropanecarbonyl)-N-((5-(difluoromethyl)pyridin-2-yl)methyl)-N′,1-dimethyl-1H-pyrazolo[4,3-c]quinoline-8-carbohydrazide] yielded a CC50 of less than 100 nM.

On to `CC(=O)N(C)N(Cc1ccc(C(F)(F)F)c(F)c1F)C(=O)c1ccc2nc(N)c3cnn(C)c3c2c1` [Example 371, N′-acetyl-4-amino-N-(2,3-difluoro-4-(trifluoromethyl)benzyl)-N′,1-dimethyl-1H-pyrazolo[4,3-c]quinoline-8-carbohydrazide], for which the CC50 is less than 100 nM.

As to `CC(=O)N(C)N(Cc1ccc(-c2cnn(C)c2)cc1F)C(=O)c1ccc2nc(N)c3cnn(C)c3c2c1` [Example 373, N′-acetyl-4-amino-N-[[2-fluoro-4-(1-methylpyrazol-4-yl)phenyl]methyl]-N′,1-dimethyl-pyrazolo[4,3-c]quinoline-8-carbohydrazide], the CC50 is less than 100 nM. Regarding `CC(=O)N(C)N(Cc1ccc(-c2cnn(C(F)(F)F)c2)cc1Cl)C(=O)c1ccc2nc(N)c3cnn(C)c3c2c1` [Example 377, N′-acetyl-4-amino-N-[[2-chloro-4-[1-(trifluoromethyl)pyrazol-4-yl]phenyl]methyl]-N′,1-dimethyl-pyrazolo[4,3-c]quinoline-8-carbohydrazide], the CC50 was less than 100 nM. `CC(=O)N(C)N(Cc1c(F)cc(-c2cnn(C(F)(F)F)c2)cc1F)C(=O)c1ccc2nc(N)c3cnn(C)c3c2c1` [Example 378, N′-acetyl-4-amino-N-[[2,6-difluoro-4-[1-(trifluoromethyl)pyrazol-4-yl]phenyl]methyl]-N′,1-dimethyl-pyrazolo[4,3-c]quinoline-8-carbohydrazide] gave a CC50 of less than 100 nM. In turn, `CC(=O)N(C)N(Cc1c(F)cc(-c2cnn(C(F)F)c2)cc1F)C(=O)c1ccc2nc(N)c3cnn(C)c3c2c1` [Example 379, N′-acetyl-4-amino-N-[[4-[1-(difluoromethyl)pyrazol-4-yl]-2,6-difluoro-phenyl]methyl]-N′,1-dimethyl-pyrazolo[4,3-c]quinoline-8-carbohydrazide] came in with a CC50 of less than 100 nM. To `CC(=O)N(C)N(Cc1c(F)cc(-c2cnn(C)c2)cc1F)C(=O)c1ccc2nc(N)c3cnn(C)c3c2c1` [Example 380, N′-acetyl-4-amino-N-[[2,6-difluoro-4-(1-methylpyrazol-4-yl)phenyl]methyl]-N′,1-dimethyl-pyrazolo[4,3-c]quinoline-8-carbohydrazide] belongs less than 100 nM; to `CC(=O)N(C)N(Cc1c(F)cc(-c2cnn(C3CC3)c2)cc1F)C(=O)c1ccc2nc(N)c3cnn(C)c3c2c1` [Example 381, N′-acetyl-4-amino-N-[[4-(1-cyclopropylpyrazol-4-yl)-2,6-difluoro-phenyl]methyl]-N′,1-dimethyl-pyrazolo[4,3-c]quinoline-8-carbohydrazide], less than 100 nM; to `CN(C(=O)C1CC1)N(Cc1cc2cc(Cl)ccn2n1)C(=O)c1ccc2nc(N)c3cnn(C)c3c2c1` [Example 401], less than 100 nM. The result for `CN(C(=O)C1CC1)N(Cc1cc2cc(C(F)(F)F)ccn2n1)C(=O)c1ccc2nc(N)c3cnn(C)c3c2c1` [Example 404, 4-amino-N′-(cyclopropanecarbonyl)-N′,1-dimethyl-N-((5-(trifluoromethyl)pyrazolo[1,5-a]pyridin-2-yl)methyl)-1H-pyrazolo[4,3-c]quinoline-8-carbohydrazide] reads less than 100 nM; that for `CC(=O)N(C)N(Cc1ccc(C#N)cc1C(F)(F)F)C(=O)c1ccc2nc(N)c3cnn(C)c3c2c1` [Example 407, N′-acetyl-4-amino-N-(4-cyano-2-(trifluoromethyl)benzyl)-N′,1-dimethyl-1H-pyrazolo[4,3-c]quinoline-8-carbohydrazide], 100 to 1000 nM; that for `CC(=O)N(C)N(Cc1ccc(C#N)cc1OC(F)F)C(=O)c1ccc2nc(N)c3cnn(C)c3c2c1` [Example 408, N′-acetyl-4-amino-N-(4-cyano-2-(difluoromethoxy)benzyl)-N′,1-dimethyl-1H-pyrazolo[4,3-c]quinoline-8-carbohydrazide], less than 100 nM. Consider `Cc1nc(C(F)(F)F)ccc1CN(C(=O)c1ccc2nc(N)c3cnn(C)c3c2c1)N(C)C(=O)C1CC1` [Example 409, 4-amino-N′-(cyclopropanecarbonyl)-N′,1-dimethyl-N-((2-methyl-6-(trifluoromethyl)pyridin-3-yl)methyl)-1H-pyrazolo[4,3-c]quinoline-8-carbohydrazide], for which the CC50 is less than 100 nM.

On to `CC(=O)N(C)N(Cc1ccc(C(F)(F)F)cc1C)C(=O)c1ccc2nc(N)c3cnn(C)c3c2c1` [Example 410, N′-acetyl-4-amino-N′,1-dimethyl-N-(2-methyl-4-(trifluoromethyl)benzyl)-1H-pyrazolo[4,3-c]quinoline-8-carbohydrazide], for which the CC50 was less than 100 nM. The result for `CC(=O)N(C)N(Cc1c(F)cc2c(ccn2C)c1F)C(=O)c1ccc2nc(N)c3cnn(C)c3c2c1` [Example 411, N′-acetyl-4-amino-N-((4,6-difluoro-1-methyl-1H-indol-5-yl)methyl)-N′,1-dimethyl-1H-pyrazolo[4,3-c]quinoline-8-carbohydrazide] reads less than 100 nM; that for `CC(=O)N(C)N(Cc1ccc2c(c1)c1ccccc1n2C)C(=O)c1ccc2nc(N)c3cnn(C)c3c2c1` [Example 412, N′-acetyl-4-amino-N′,1-dimethyl-N-((9-methyl-9H-carbazol-3-yl)methyl)-1H-pyrazolo[4,3-c]quinoline-8-carbohydrazide], 100 to 1000 nM; that for `CC(=O)N(C)N(Cc1cc(F)c(F)c(F)c1)C(=O)c1ccc2nc(N)c3cnn(C)c3c2c1` [Example 414, N′-acetyl-4-amino-N′,1-dimethyl-N-(3,4,5-trifluorobenzyl)-1H-pyrazolo[4,3-c]quinoline-8-carbohydrazide], 100 to 1000 nM. To `CC(=O)N(C)N(Cc1ccn(-c2ccc(C(F)(F)F)cc2)n1)C(=O)c1ccc2nc(N)c3cnn(C)c3c2c1` [Example 417, N′-acetyl-4-amino-N′,1-dimethyl-N-((1-(4-(trifluoromethyl)phenyl)-1H-pyrazol-3-yl)methyl)-1H-pyrazolo[4,3-c]quinoline-8-carbohydrazide] belongs less than 100 nM; to `CN(C(=O)C1CC1)N(Cc1ccc(C(F)(F)F)cn1)C(=O)c1cc2c(cn1)nc(N)c1cnn(C)c12` [Example 422, 4-amino-N′-(cyclopropanecarbonyl)-N′,1-dimethyl-N-((5-(trifluoromethyl)pyridin-2-yl)methyl)-1H-pyrazolo[4,3-c][1,7]naphthyridine-8-carbohydrazide], 100 to 1000 nM; to `CC(=O)N(C)N(Cc1nc2cc(F)c(F)cc2n1C)C(=O)c1ccc2nc(N)c3cnn(C)c3c2c1` [Example 424, N′-acetyl-4-amino-N-((5,6-difluoro-1-methyl-1H-benzo[d]imidazol-2-yl)methyl)-N′,1-dimethyl-1H-pyrazolo[4,3-c]quinoline-8-carbohydrazide], less than 100 nM. To `CC(=O)N(C)N(Cc1ccn(-c2ccc(F)cc2)n1)C(=O)c1cc2c(cc1F)nc(N)c1cnn(C)c12` [Example 425, N′-acetyl-4-amino-7-fluoro-N-((1-(4-fluorophenyl)-1H-pyrazol-3-yl)methyl)-N′,1-dimethyl-1H-pyrazolo[4,3-c]quinoline-8-carbohydrazide] belongs less than 100 nM; to `CC(=O)N(C)N(Cc1nc2ccc(Cl)cc2n1C)C(=O)c1ccc2nc(N)c3cnn(C)c3c2c1` [Example 426, N′-acetyl-4-amino-N-((6-chloro-1-methyl-1H-benzo[d]imidazol-2-yl)methyl)-N′,1-dimethyl-1H-pyrazolo[4,3-c]quinoline-8-carbohydrazide], less than 100 nM; to `Cn1ncc2c(N)nc3cc(F)c(C(=O)N(Cc4ccc(C(F)(F)F)cn4)N4CCOC(C(F)(F)F)C4)cc3c21` (centres unmarked) [Example 427, 4-amino-7-fluoro-1-methyl-N-(2-(trifluoromethyl)morpholino)-N-((5-(trifluoromethyl)pyridin-2-yl)methyl)-1H-pyrazolo[4,3-c]quinoline-8-carboxamide], less than 100 nM.

Take `Cn1ncc2c(N)nc3ccc(C(=O)N(Cc4ccc(C(F)(F)F)cn4)N4CCOC(C(F)(F)F)C4)cc3c21` (centres unmarked) [Example 428, 4-amino-1-methyl-N-(2-(trifluoromethyl)morpholino)-N-((5-(trifluoromethyl)pyridin-2-yl)methyl)-1H-pyrazolo[4,3-c]quinoline-8-carboxamide]: the CC50 fell in the range of 100 to 1000 nM.

In the case of `CC(=O)N(C)N(Cc1nc(-c2ccccc2)cs1)C(=O)c1ccc2nc(N)c3cnn(C)c3c2c1` [Example 429, N′-acetyl-4-amino-N′,1-dimethyl-N-((4-phenylthiazol-2-yl)methyl)-1H-pyrazolo[4,3-c]quinoline-8-carbohydrazide], the 50% cytotoxic concentration (CC50) is less than 100 nM.

Turning to `CC(=O)N(C)N(Cc1cnn(-c2ccc(C(F)(F)F)cc2)c1)C(=O)c1ccc2nc(N)c3cnn(C)c3c2c1` [Example 430, N′-acetyl-4-amino-N′,1-dimethyl-N-((1-(4-(trifluoromethyl)phenyl)-1H-pyrazol-4-yl)methyl)-1H-pyrazolo[4,3-c]quinoline-8-carbohydrazide], the CC50 was 100 to 1000 nM. `CC(=O)N(C)N(Cc1nc2ccccc2n1C(F)F)C(=O)c1ccc2nc(N)c3cnn(C)c3c2c1` [Example 431, N′-acetyl-4-amino-N-((1-(difluoromethyl)-1H-benzo[d]imidazol-2-yl)methyl)-N′,1-dimethyl-1H-pyrazolo[4,3-c]quinoline-8-carbohydrazide] returned a CC50 of 100 to 1000 nM.

`CC(=O)N(C)N(Cc1cnc(-c2ccccc2)n1C)C(=O)c1ccc2nc(N)c3cnn(C)c3c2c1` [Example 433, N′-acetyl-4-amino-N′,1-dimethyl-N-((1-methyl-2-phenyl-1H-imidazol-5-yl)methyl)-1H-pyrazolo[4,3-c]quinoline-8-carbohydrazide]: the CC50 was less than 100 nM. To `Cn1ncc2c(N)nc3ccc(C(=O)N(Cc4ccn(-c5ccccc5F)n4)NC(=O)C4CC4)cc3c21` [Example 434, 4-amino-N′-(cyclopropanecarbonyl)-N-((1-(2-fluorophenyl)-1H-pyrazol-3-yl)methyl)-1-methyl-1H-pyrazolo[4,3-c]quinoline-8-carbohydrazide] belongs less than 100 nM.
